The record followed here is US20250215030A1, “STAT MODULATORS AND USES THEREOF” (Recludix Pharma, Inc., priority 2022, published 2025).

The target in experiment [1] is T1, pSTAT3 (pY705-STAT3) (Homo sapiens, UniProt P40763).
T1 construct: host or cells: cryopreserved PBMC
Description: MSD-pSTAT-PBMC Assay (pSTAT3, IL-6 stimulated). The experiment is classed as cell-based. The conditions noted are these: PBMC, compound 3 hrs, then 10 ng/mL IL-6 for 10 min; MSD pY705-STAT3; read-out: pSTAT3. Put shortly: (§1)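 Human PBMCs (50,000 cells/well for STAT3, 25,000 for STAT6) treated with compound 3 h, then stimulated 10 min with 10 ng/mL IL-6 or 1 ng/mL IL-4. Lysate pSTAT3 (pY705) or pSTAT6 (pY641) measured by MSD sandwich electrochemiluminescence. Signal minus unstimulated, normalized to DMSO; IC50 by variable-slope nonlinear regression.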

For experiment [2], the target named is T2, pSTAT6 (pY641-STAT6) (Homo sapiens, UniProt P42226).
T2 construct: host or cells: cryopreserved PBMC
T2 sequence (P42226 1-847): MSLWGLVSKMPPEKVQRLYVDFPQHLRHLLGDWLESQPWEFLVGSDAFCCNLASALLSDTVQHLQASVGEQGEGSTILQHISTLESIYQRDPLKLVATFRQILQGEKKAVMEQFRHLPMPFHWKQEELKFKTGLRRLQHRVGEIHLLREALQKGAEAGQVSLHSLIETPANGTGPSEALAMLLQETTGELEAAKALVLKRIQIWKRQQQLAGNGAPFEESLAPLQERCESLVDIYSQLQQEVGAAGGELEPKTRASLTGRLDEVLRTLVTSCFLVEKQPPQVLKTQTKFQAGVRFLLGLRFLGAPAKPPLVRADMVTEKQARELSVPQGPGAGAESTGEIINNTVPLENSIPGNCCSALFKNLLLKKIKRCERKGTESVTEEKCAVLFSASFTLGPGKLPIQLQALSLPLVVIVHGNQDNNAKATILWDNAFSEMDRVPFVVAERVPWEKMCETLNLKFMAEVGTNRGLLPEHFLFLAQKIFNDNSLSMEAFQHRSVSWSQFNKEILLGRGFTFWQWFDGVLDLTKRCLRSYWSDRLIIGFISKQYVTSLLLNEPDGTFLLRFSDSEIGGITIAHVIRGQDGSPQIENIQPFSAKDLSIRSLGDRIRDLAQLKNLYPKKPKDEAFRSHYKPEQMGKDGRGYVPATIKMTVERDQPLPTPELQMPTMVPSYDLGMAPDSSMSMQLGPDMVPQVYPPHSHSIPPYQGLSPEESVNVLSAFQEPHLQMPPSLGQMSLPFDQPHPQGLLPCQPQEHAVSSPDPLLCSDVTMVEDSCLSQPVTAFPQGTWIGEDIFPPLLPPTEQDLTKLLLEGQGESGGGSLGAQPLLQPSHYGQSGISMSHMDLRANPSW
Description: MSD-pSTAT-PBMC Assay (pSTAT6, IL-4 stimulated). Particulars: compound 3 hrs, then 1 ng/mL IL-4 for 10 min. It counts as cell-based. Put shortly:
as §1

T1 sequence (P40763 whole entry): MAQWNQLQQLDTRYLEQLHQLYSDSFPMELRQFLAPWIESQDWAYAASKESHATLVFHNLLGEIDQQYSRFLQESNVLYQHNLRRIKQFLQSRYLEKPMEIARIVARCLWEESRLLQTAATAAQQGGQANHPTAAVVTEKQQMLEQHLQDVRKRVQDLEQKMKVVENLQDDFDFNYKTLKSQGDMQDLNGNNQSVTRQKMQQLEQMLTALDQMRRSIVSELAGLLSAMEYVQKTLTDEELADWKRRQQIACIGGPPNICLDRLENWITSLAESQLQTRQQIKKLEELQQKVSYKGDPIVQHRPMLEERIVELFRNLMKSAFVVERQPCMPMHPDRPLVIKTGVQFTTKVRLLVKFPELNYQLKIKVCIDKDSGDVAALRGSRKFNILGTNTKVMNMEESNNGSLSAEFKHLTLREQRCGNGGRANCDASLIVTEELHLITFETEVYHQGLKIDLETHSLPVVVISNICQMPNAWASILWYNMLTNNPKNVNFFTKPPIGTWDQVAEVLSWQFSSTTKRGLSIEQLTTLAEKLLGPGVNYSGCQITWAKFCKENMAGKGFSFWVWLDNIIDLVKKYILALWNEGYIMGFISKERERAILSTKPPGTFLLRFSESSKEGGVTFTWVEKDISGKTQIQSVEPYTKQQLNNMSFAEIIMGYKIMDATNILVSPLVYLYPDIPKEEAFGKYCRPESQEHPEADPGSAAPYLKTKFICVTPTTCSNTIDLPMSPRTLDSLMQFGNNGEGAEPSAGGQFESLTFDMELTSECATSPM

As for `COCC(C)(C)OC(=O)OCOP(=O)(OCOC(=O)OC(C)(C)COC)C(F)(F)c1ccc2sc(C(=O)N[C@H]3C[C@@H]4C[C@@H]4C[C@H]4CC[C@@H](C(=O)N5CC(C(=O)N6CCOCC6)C5)N4C3=O)cc2c1` [Compound 161, (((difluoro(2-(((3S,6S,7aS, 8aR,9aR)-3-(3-(morpholine-4-carbonyl)azetidine-1-carbonyl)-5-oxodecahydro-1H-cyclopropa [d]pyrrolo[1,2-a]azocin-6-yl)carbamoyl)benzo[b]thiophen-5-yl)methyl)phosphoryl)bis(oxy)) bis(methylene) bis(1-methoxy-2-methylpropan-2-yl) bis(carbonate)], the IC50 in experiment [1] is below 100 nM; in experiment [2], above 3 µM.
In the same order, the values of `O=C(OCOP(=O)(OCOC(=O)OC1CCOCC1)C(F)(F)c1ccc2sc(C(=O)N[C@H]3C[C@@H]4C[C@@H]4C[C@H]4CC[C@@H](C(=O)N5CC(C(=O)N6CCOCC6)C5)N4C3=O)cc2c1)OC1CCOCC1` [Compound 162, (((difluoro(2-(((3S,6S,7aS, 8aR,9aR)-3-(3-(morpholine-4-carbonyl)azetidine-1-carbonyl)-5-oxodecahydro-1H-cyclopropa [d]pyrrolo[1,2-a]azocin-6-yl)carbamoyl)benzo[b]thiophen-5-yl)methyl)phosphoryl)bis(oxy)) bis(methylene) bis(tetrahydro-2H-pyran-4-yl) bis(carbonate)] are 100 to 1000 nM and above 3 µM.
With `CC(C)OC(=O)[C@H](Cc1ccccc1)NP(=O)(Oc1ccccc1)C(F)(F)c1ccc2sc(C(=O)N[C@H]3C[C@@H]4C[C@@H]4C[C@H]4CC[C@@H](C(=O)N5CC(C(=O)N6CCOCC6)C5)N4C3=O)cc2c1` (stereo partly drawn) [Compound 165, isopropyl ((difluoro(2-(((3S,6S,7aS, 8aR,9aR)-3-(3-(morpholine-4-carbonyl)azetidine-1-carbonyl)-5-oxodecahydro-1H-cyclopropa[d]pyrrolo[1,2-a]azocin-6-yl)carbamoyl)benzo[b]thiophen-5-yl)methyl) (phenoxy)phosphoryl)-L-phenylalaninate], the IC50 in experiment [1] is 1000 to 3000 nM; in experiment [2], above 3 µM.
Taken in the same sequence, the figures for `O=C(OCOP(=O)(OCOC(=O)OC1CCOCC1)C(F)(F)c1ccc2sc(C(=O)N[C@H]3C[C@H]4C[C@H]4C[C@H]4CC[C@@H](C(=O)N5CC(c6cccnc6)C5)N4C3=O)cc2c1)OC1CCOCC1` [Compound 166, (((difluoro(2-(((3S,6S,7aR, 8aS,9aR)-5-oxo-3-(3-(pyridin-3-yl)azetidine-1-carbonyl)decahydro-1H-cyclopropa[d]pyrrolo[1,2-a]azocin-6-yl)carbamoyl)benzo[b]thiophen-5-yl)methyl)phosphoryl)bis(oxy)) bis(methylene) bis(tetrahydro-2H-pyran-4-yl) bis(carbonate)] were below 100 nM and above 3 µM.
Take `COCC(C)(C)OC(=O)OCOP(=O)(OCOC(=O)OC(C)(C)COC)C(F)(F)c1ccc2sc(C(=O)N[C@H]3C[C@H]4C[C@H]4C[C@H]4CC[C@@H](C(=O)N5CC(c6cccnc6)C5)N4C3=O)cc2c1` [Compound 168, (((difluoro(2-(((3S,6S,7aR, 8aS,9aR)-5-oxo-3-(3-(pyridin-3-yl)azetidine-1-carbonyl)decahydro-1H-cyclopropa[d]pyrrolo[1,2-a]azocin-6-yl)carbamoyl)benzo[b]thiophen-5-yl)methyl)phosphoryl)bis(oxy)) bis(methylene) bis(1-methoxy-2-methylpropan-2-yl) bis(carbonate)]: the IC50 was below 100 nM in experiment [1] and above 3 µM in experiment [2].
Taken in the same sequence, the figures for `COCCCOC(=O)OCOP(=O)(OCOC(=O)OCCCOC)C(F)(F)c1ccc2sc(C(=O)N[C@H]3C[C@@H]4C[C@@H]4C[C@H]4CC[C@@H](C(=O)N5CC(C(=O)N6CCOCC6)C5)N4C3=O)cc2c1` [Compound 169, (((difluoro(2-(((3S,6S,7aS, 8aR,9aR)-3-(3-(morpholine-4-carbonyl)azetidine-1-carbonyl)-5-oxodecahydro-1H-cyclopropa [d]pyrrolo[1,2-a]azocin-6-yl)carbamoyl)benzo[b]thiophen-5-yl)methyl)phosphoryl)bis(oxy)) bis(methylene) bis(3-methoxypropyl) bis(carbonate)] were 100 to 1000 nM and above 3 µM.
In the same order, the values of `CC(C)(C)OC(=O)OCOP(=O)(OCOC(=O)OC(C)(C)C)C(F)(F)c1ccc2sc(C(=O)N[C@H]3C[C@@H]4C[C@@H]4C[C@H]4CC[C@@H](C(=O)N5CC(C(=O)N6CCOCC6)C5)N4C3=O)cc2c1` [Compound 170, di-tert-butyl ((((difluoro(2-(((3S,6S,7aS, 8aR,9aR)-3-(3-(morpholine-4-carbonyl)azetidine-1-carbonyl)-5-oxodecahydro-1H-cyclopropa[d]pyrrolo[1,2-a]azocin-6-yl)carbamoyl)benzo[b]thiophen-5-yl)methyl)phosphoryl)bis(oxy))bis(methylene)) bis(carbonate)] are 1000 to 3000 nM and above 3 µM.
On to `CC(C)(C)C(=O)SCCOP(=O)(OCCSC(=O)C(C)(C)C)C(F)(F)c1ccc2sc(C(=O)N[C@H]3C[C@@H]4C[C@@H]4C[C@H]4CC[C@@H](C(=O)N5CC(C(=O)N6CCOCC6)C5)N4C3=O)cc2c1` [Compound 171, S,S′-((((difluoro(2-(((3S,6S,7aS, 8aR,9aR)-3-(3-(morpholine-4-carbonyl)azetidine-1-carbonyl)-5-oxodecahydro-1H-cyclopropa[d]pyrrolo[1,2-a]azocin-6-yl)carbamoyl)benzo[b]thiophen-5-yl)methyl)phosphoryl)bis(oxy))bis(ethane-2,1-diyl)) bis(2,2-dimethyl-propanethioate)], for which the IC50 in experiment [1] was below 100 nM; in experiment [2], above 3 µM.
Turning to `COCCOC(=O)OCOP(=O)(OCOC(=O)OCCOC)C(F)(F)c1ccc2sc(C(=O)N[C@H]3C[C@@H]4C[C@@H]4C[C@H]4CC[C@@H](C(=O)N5CC(C(=O)N6CCOCC6)C5)N4C3=O)cc2c1` [Compound 172, (((difluoro(2-(((3S,6S,7aS, 8aR,9aR)-3-(3-(morpholine-4-carbonyl)azetidine-1-carbonyl)-5-oxodecahydro-1H-cyclopropa [d]pyrrolo[1,2-a]azocin-6-yl)carbamoyl)benzo[b]thiophen-5-yl)methyl)phosphoryl)bis(oxy)) bis(methylene) bis(2-methoxyethyl) bis(carbonate)], the IC50 is 100 to 1000 nM in experiment [1] and above 3 µM in experiment [2].
Regarding `C[C@H](NP(=O)(Oc1ccccc1)C(F)(F)c1ccc2sc(C(=O)N[C@H]3C[C@@H]4C[C@@H]4C[C@H]4CC[C@@H](C(=O)N5CC(C(=O)N6CCOCC6)C5)N4C3=O)cc2c1)C(=O)OCc1ccccc1` (stereo partly drawn) [Compound 173, benzyl ((difluoro(2-(((3S,6S,7aS, 8aR,9aR)-3-(3-(morpholine-4-carbonyl)azetidine-1-carbonyl)-5-oxodecahydro-1H-cyclopropa[d]pyrrolo[1,2-a]azocin-6-yl)carbamoyl)benzo[b]thiophen-5-yl)methyl) (phenoxy)phosphoryl)-L-alaninate], the figures for the IC50 in experiment [1] and in experiment [2] were 1000 to 3000 nM and above 3 µM, respectively.
In the same order, the values of `CC(C)(C)C(=O)OCOP(=O)(OCOC(=O)C(C)(C)C)C(F)(F)c1ccc2sc(C(=O)N[C@H]3C[C@@H]4C[C@@H]4C[C@H]4CC[C@@H](C(=O)Nc5ccc(-c6ccccc6)cc5)N4C3=O)cc2c1` [Compound 175, ((((2-(((3S,6S,7aS, 8aR,9aR)-3-([1,1′-biphenyl]-4-ylcarbamoyl)-5-oxodecahydro-1H-cyclopropa[d]pyrrolo[1,2-a]azocin-6-yl)carbamoyl)benzo[b]thiophen-5-yl)difluoro-methyl)phosphoryl)bis(oxy)) bis(methylene) bis(2,2-dimethyl-propanoate)] are 100 to 1000 nM and above 3 µM.
With `CC(C)OC(=O)OCOP(=O)(OCOC(=O)OC(C)C)C(F)(F)c1ccc2sc(C(=O)N[C@H]3C[C@@H]4C[C@@H]4C[C@H]4CC[C@@H](C(=O)N5CC(C(=O)N6CCOCC6)C5)N4C3=O)cc2c1` [Compound 176, (((difluoro(2-(((3S,6S,7aS, 8aR,9aR)-3-(3-(morpholine-4-carbonyl)azetidine-1-carbonyl)-5-oxodecahydro-1H-cyclopropa[d]pyrrolo[1,2-a]azocin-6-yl)carbamoyl)benzo[b]thiophen-5-yl)methyl)phosphoryl)bis(oxy)) bis(methylene) diisopropyl bis(carbonate)], the IC50 in experiment [1] was below 100 nM; in experiment [2] it was above 3 µM.
